{"source": "patent US12161669B2", "about": "“Compositions and methods for cell targeting therapies” (UMC UTRECHT HOLDING B.V., priority 2017, dated 2024)", "key": {"[1]": {"tested_on": "RhoA", "assay": "Intracellular RhoA distribution by confocal microscopy in EBV-LCL 48", "assay_type": "cell-based", "conditions": "EBV-LCL 48, with or without ABP"}, "[2]": {"tested_on": "RhoB and CD277", "assay": "Flow cytometry FRET of RhoB-CD277 association in HEK 293 cells", "assay_type": "cell-based", "conditions": "ABP treated vs untreated", "description": "To study association of RhoB and BTN3 molecules, cells were permeabilized by using Permeabilization solution 2 (BD), then blocked with PBS containing 50% Human serum and labeled with rabbit polyclonal anti-RhoB antibody (AbCam). After washing with PBS, samples were labeled with Alexa594-conjugated Goat anti-Rabbit IgG (acceptor) (Jackson ImmunoResearch) and CD277-PE (donor) (BT3.1, Biollegend), respectively. The donor fluorescence was measured using a FACS Canto-II flow cytometer (BD) where donor fluorescence of the double-labeled samples was compared with that of samples labeled only with donor antibody. FRET efficiency was calculated from the fractional decrease of the donor fluorescence in the presence of the acceptor."}, "[3]": {"tested_on": "CD277", "assay": "Flow cytometry FRET between BODIPY FL-stained membrane and anti-CD277 mAbs (CD277 conformational change), HEK 293 cells", "assay_type": "cell-based", "conditions": "ABP vs unstimulated", "description": "Conformational change of BTN3 molecule was determined similarly as described in ([…] et al., 2001). Cells were labeled with 5 ug/ml BODIPY-FL DPHE (donor) (Life Technologies) for 10 minutes on ice and then 10 minutes at 37 C, then washed extensively with ice-cold PBS. Cells were subsequently labeled with mouse anti-CD277 mAbs (either clone #20.1 or #103.2) and Alexa594-conjugated Goat anti-Mouse Fab fragments (Jackson ImmunoResearch). After washing, cells were resuspended in ice cold PBS and measured immediately using a FACS Canto-II flowcytometer (BD). FRET efficiency was calculated from the fractional decrease of the donor fluorescence in the presence of the acceptor."}, "[4]": {"tested_on": "Daudi cells", "assay": "sTCR YG-bead conjugation to Daudi cells", "assay_type": "binding", "conditions": "with vs without PAM", "text": "The extracellular domains of the TCR chains were amplified from synthetic DNA encoding the full length TCRs. The domain boundaries were based on ones published before for Vγ9Vδ2 TCR G115. The TCR chains were ligated in to a modified pBullet vector containing a μ-phosphatase signal peptide at the 5′ end and fos zipper at the 3′ end of the construct. The TCRγ chains were ligated in a modified pBullet vector containing a μ-phosphatase signal peptide at the 5′ end and at the 3′ a jun zipper followed by a biotin acceptor peptide and a poly-histidine tag. Synthetic DNA encoding for the bacterial biotin ligase BirA was also ligated in a pBullet vector containing a signal peptide. The expression of soluble γδTCRs was done in Freestyle 293-F cells (ThermoFisher). In short, plasmids containing TCRδ, TCRγ and BirA were mixed into a 45:45:10 ratio, combined with polyethylenimine (PEI) in a 2:3 ratio and incubated for 15′ at room temperature. […]\nFor tetramer and dextramer staining, 1.0*10^5 cells were incubated with 30 ul tetramer or dextramer solution (100 nM with respect to SA-PE) for 30 minutes at R.T. For beads staining, 7.5*10^4 cells were incubated with 20 μl sTCR-YG-beads (0.33 mg beads/ml) for 30. […] Samples were washed once with 1% formaldehyde and analyzed on a BD FACSCanto II (BD). γδTCR enrichment to synapse and conjugate formation"}, "[5]": {"tested_on": "HEK293FT tumor cells", "assay": "Tumor cell-T cell conjugate formation with HEK293FT cells (confocal)", "assay_type": "cell-based", "conditions": "Jurma cells expressing γδTCRs, 100 μM PAM", "description": "HEK293FT cells were seeded in μ-slide poly-L-lysine pre coated chamber (Ibidi) to adhere overnight. Next day cells were treated with 100 μM PAM for one hour at 37° C. TEGs were added onto HEK293FT cells and incubated at 37° C. for 30-120 minutes. After co-incubation chambers were immediately placed onto ice and fixed with 4% PFA for 30 minutes. Samples were blocked with 1% BSA/FCS and labeled with CD3ε-Alexa Fluor 647 (BD Biosciences) at 2 μg/mL for two hours at room temperature, and finally fixed with 1% PFA+DAPI. Samples were imaged with Zeiss LSM-710 and analyzed with Volocity software (PerkinElmer). In order to quantify the number of conjugates between HEK293FT and TEG cells we calculated the ratio between CD3c positive objects and DAPI positive objects on each image taken. To analyse gamma delta TCR enrichment into the immunological synapse, we calculated the ratio of CD3c signal enrichment inside the contact area versus outside of contact area of the target and effector cell on 63× magnified images. To further assess whether distinct functional avidity of γ9δ2TCRs when expressed in the TEG format is regulated by their ability to mediate binding of TEGs to tumor cell targets a more dynamic model was utilized. […] The number of tumor cell-T cell conjugates was assessed. […]"}}, "data": [{"smiles": "NCCC(O)(P(=O)(O)O)P(=O)(O)O", "note": "[pamidronate]", "values": [{"measurement": "intracellular distribution of RhoA", "setting": "[1]", "value": "did not change"}, {"measurement": "close association between RhoB and CD277 (FRET efficiency)", "setting": "[2]", "value": "increased markedly"}, {"measurement": "FRET between stained membrane and anti-CD277 antibodies (20.1, 103.2)", "setting": "[3]", "value": "marked reduction in FRET signals"}, {"measurement": "intensity of TCR-YG-bead conjugation to Daudi cells", "setting": "[4]", "value": "did not change"}, {"measurement": "number of tumor cell-T cell conjugates, effect of PAM", "setting": "[5]", "value": "increased the number of conjugates"}]}]}
